Assay [1] deals with HeLa cytotoxicity, plate reader, 48 h. Kind of assay: HeLa cell cytotoxicity, dose response, cytotoxicity control, 48 h, plate reader, cherry-picks, set 2 (AID 504944).
Test in assay [2]: as above
Conditions: HeLa cytotoxicity, plate reader, 48 h; at 38 µM (top of the series).

Consider 28 compounds from PubChem BioAssay AID504944 (Broad Institute, 2011).

Calls of active or inactive are those of the source. No rule for the calls is given here.

As to `Cc1ccc2nc(-c3ccc4c(c3)OCCO4)cn2c1`, the AC50 in assay [1] was 22.3 µM.

Regarding `COC(=O)c1ccc(/C=C(\C#N)c2ccccn2)cc1`, the AC50 in assay [1] is 29 µM.

On to `CO/N=C/c1cn(-c2ccc(Cl)cc2)nn1`, for which the AC50 in assay [1] is 22.3 µM.

`N#C/C(=C/c1ccco1)c1nc2ccccc2s1`: in assay [1], the AC50 was 24.4 µM.

Consider `Cc1cc(NC(=O)c2cc([N+](=O)[O-])ccc2Cl)no1`, for which, in assay [1], the AC50 is 29.1 µM.

Consider `O=CC1=C(c2ccccc2)Oc2ccccc2O1`, for which, in assay [1], the AC50 was 20.6 µM.

For `COc1ccc(N=C(C)C2=C(O)CSC2=O)cc1`, in assay [2], the activity change, negative = toxicity was 5.59% (inactive).

`CCOC(=O)CC(C#N)c1cn(C)c2ccccc12` (stereo not drawn): the activity change, negative = toxicity in assay [2] was -3.91% (inactive).

Turning to `CCCCCC1CC(COc2ccccc2)OC1=O` (stereo not drawn), the activity change, negative = toxicity in assay [2] is -3.8% (inactive).

For `O=C1N[C@@H](Cc2ccccc2)[C@@H](c2ccco2)O1`, the activity change, negative = toxicity in assay [2] is -3.87% (inactive).

Regarding `Clc1cccc(CNCCCSc2ncccn2)c1`, the activity change, negative = toxicity in assay [2] was -1.31% (inactive).

For `N#CC(Sc1ccccn1)c1ccc(Cl)cc1` (stereo not drawn), the activity change, negative = toxicity in assay [2] was -11% (inactive).

Turning to `CC(C)(C)NC(=O)c1cc(Cl)ccc1[N+](=O)[O-]`, the activity change, negative = toxicity in assay [2] is -2.21% (inactive).

For `O=C1C=C(c2cc(F)ccc2F)C[C@@H](c2ccc(F)cc2)C1`, the activity change, negative = toxicity in assay [2] is -9.01% (inactive).

Turning to `COc1ccc(N2CCN(C(=O)c3ccc(Br)o3)CC2)cc1`, in assay [2], the activity change, negative = toxicity was -5.84% (inactive).

Turning to `O=C(NC1CCS(=O)(=O)C1)c1cccc(Br)c1` (stereo not drawn), the activity change, negative = toxicity in assay [2] is -1.62% (inactive).

With `Cc1cc(NC(=O)c2cc([N+](=O)[O-])cc([N+](=O)[O-])c2C)no1`, the activity change, negative = toxicity in assay [2] was -10.2% (inactive).

`Cn1cccc1C(C#N)c1ccccc1C#N` (stereo not drawn): the activity change, negative = toxicity in assay [2] was -10.8% (inactive).

For `OC(c1cccc(Cl)c1)c1nccc2ccccc12` (stereo not drawn), the activity change, negative = toxicity in assay [2] was -10.8% (inactive).

Take `O=C(NC1CCCCCCC1)c1cccc(Cl)c1`: the activity change, negative = toxicity in assay [2] was -22.5% (inactive).

`CCOC(=O)/C=C(\C)Sc1cc(=O)oc2ccccc12`: the half-maximal activity concentration (AC50) in assay [1] is 23.9 µM.

As to `CCOC(=O)c1cc2c(s1)-c1c(C)cccc1OC2`, the activity change, negative = toxicity in assay [2] was -10.8% (inactive).

For `Cc1ccc(C(C#N)c2ccc(Cl)nn2)cc1` (stereo not drawn), the activity change, negative = toxicity in assay [2] was -10.6% (inactive).

As to `O=C1C=C(c2cccc(Cl)c2)C[C@@H](c2ccc(F)cc2)C1`, in assay [2], the activity change, negative = toxicity was -19.4% (inactive).

As for `CCOC(=O)c1ccc(-c2ccc(CO)o2)cc1`, the activity change, negative = toxicity in assay [2] was -14.8% (inactive).

On to `O=C(Nc1ncc([N+](=O)[O-])s1)c1cccc([N+](=O)[O-])c1`, for which, in assay [1], the AC50 is 14.3 µM.

Take `O=C1C2C3C=CC(C4CC34)C2C(=O)N1Cc1ccco1` (stereo not drawn): the activity change, negative = toxicity in assay [2] was -2.48% (inactive).

Take `O=[N+]([O-])c1ccc(-c2cccnc2)cc1`: the activity change, negative = toxicity in assay [2] is -9.26% (inactive).
